Molecular target: T1, WT BTK protein (Homo sapiens, UniProt Q06187)
T1 construct: measured for intracellular BTK protein levels by Western blotting; endogenous in cells; host or cells: TMD-8 or RAMOS cells
Assay: BTK protein degradation assay (Western blotting), WT BTK
Type: cell-based
Settings: concentration range accounting for 50% degradation of WT BTK protein, TMD-8 or RAMOS cells, 24 hours
In short: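 TMD-8 cells (1×10^6 cells/mL) treated 24 h with compound serial dilutions, then lysed in RIPA. Equal protein loads analysed by Western blot for BTK with GAPDH/β-actin as loading controls; activity binned by concentration giving 50% WT BTK degradation.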

T1 sequence (Q06187 whole entry): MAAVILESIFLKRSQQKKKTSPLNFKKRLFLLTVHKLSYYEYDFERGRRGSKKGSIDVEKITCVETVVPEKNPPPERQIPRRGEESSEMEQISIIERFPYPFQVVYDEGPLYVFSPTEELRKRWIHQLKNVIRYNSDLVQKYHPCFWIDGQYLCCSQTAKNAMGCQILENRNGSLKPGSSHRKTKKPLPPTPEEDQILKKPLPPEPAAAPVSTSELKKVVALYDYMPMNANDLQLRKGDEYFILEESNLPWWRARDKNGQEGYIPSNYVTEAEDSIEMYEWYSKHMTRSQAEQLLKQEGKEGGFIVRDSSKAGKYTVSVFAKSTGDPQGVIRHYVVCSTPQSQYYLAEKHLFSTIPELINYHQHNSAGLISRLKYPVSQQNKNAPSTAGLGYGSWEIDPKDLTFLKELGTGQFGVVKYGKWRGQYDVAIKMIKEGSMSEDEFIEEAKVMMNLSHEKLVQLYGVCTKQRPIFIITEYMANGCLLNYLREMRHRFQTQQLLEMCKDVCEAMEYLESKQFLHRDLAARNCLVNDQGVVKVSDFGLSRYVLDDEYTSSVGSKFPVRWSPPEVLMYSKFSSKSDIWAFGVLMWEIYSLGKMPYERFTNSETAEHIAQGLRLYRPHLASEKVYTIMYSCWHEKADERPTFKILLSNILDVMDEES

In the case of `Cc1cccc(C)c1Nc1nn(C)c2nc(Nc3ccc4c(c3)CN(C(=O)/C(C#N)=C/C3CCN(C(=O)COc5ccc6c(c5)C(=O)N(C5CCC(=O)NC5=O)C6=O)CC3)CC4)ncc12` (stereo not shown) [Compound 241, (E)-2-(7-((3-((2,6-dimethylphenyl)amino)-1-methyl-1H-pyrazolo[3,4-d]pyrimidin-6-yl)amino)-1,2,3,4-tetrahydroisoquinoline-2-carbonyl)-3-(1-(2-((2-(2,6-dioxopiperidin-3-yl)-1,3-dioxoisoindolin-5-yl)oxy)acetyl)piperidin-4-yl)acrylonitrile], the DC50 is reported as 0.1 to 10 nM.

`Cc1cccc(C)c1Nc1nn(C)c2nc(Nc3ccc4c(c3)CN(C(=O)C3(F)CCN(c5ccc6c(c5)C(=O)N(C5CCC(=O)NC5=O)C6=O)CC3)CC4)ncc12` (stereo not shown) [Compound 243, 5-(4-(7-((3-((2,6-dimethylphenyl)amino)-1-methyl-1H-pyrazolo[3,4-d]pyrimidin-6-yl)amino)-1,2,3,4-tetrahydroisoquinoline-2-carbonyl)-4-fluoropiperidin-1-yl)-2-(2,6-dioxopiperidin-3-yl)isoindoline-1,3-dione] showed a DC50 of 0.1 to 10 nM.

In the case of `Cc1cccc(C)c1Nc1nn(C)c2nc(Nc3ccc4c(c3)CN(C(=O)C3(F)CCN(c5cc6c(cc5F)C(=O)N(C5CCC(=O)NC5=O)C6=O)CC3)CC4)ncc12` (stereo not shown) [Compound 244, 5-(4-(7-((3-((2,6-dimethylphenyl)amino)-1-methyl-1H-pyrazolo[3,4-d]pyrimidin-6-yl)amino)-1,2,3,4-tetrahydroisoquinoline-2-carbonyl)-4-fluoropiperidin-1-yl)-2-(2,6-dioxopiperidin-3-yl)-6-fluoroisoindoline-1,3-dione], the DC50 is reported as 0.1 to 10 nM.

Molecule `Cc1cccc(C)c1Nc1nn(C)c2nc(Nc3ccc(N4CCN(CC5CCN(c6cc7c(cc6F)C(=O)N(C6CCC(=O)NC6=O)C7)CC5)CC4)cc3)ncc12` (stereo not shown) [Compound 245, 3-(5-(4-((4-(4-((3-((2,6-Dimethylphenyl)amino)-1-methyl-1H-pyrazolo[3,4-d]pyrimidin-6-yl)amino)phenyl)piperazin-1-yl)methyl)piperidin-1-yl)-6-fluoro-1-oxoisoindolin-2-yl)piperidin-2,6-one] has a DC50 of 0.1 to 10 nM.

`Cc1cccc(C)c1Nc1nn(C)c2nc(Nc3ccc4c(c3)CN(C(=O)C3(F)CCN(C(=O)C5CCN(c6ccc7c(c6)C(=O)N(C6CCC(=O)NC6=O)C7=O)CC5)CC3)CC4)ncc12` (stereo not shown) [Compound 246, 5-(4-(4-(7-((3-((2,6-dimethylphenyl)amino)-1-methyl-1H-pyrazolo[3,4-d]pyrimidin-6-yl)amino)-1,2,3,4-tetrahydroisoquinoline-2-carbonyl)-4-fluoropiperidine-1-carbonyl)piperidin-1-yl)-2-(2,6-dioxopiperidin-3-yl)isoindoline-1,3-dione] gave a DC50 of 0.1 to 10 nM.

Work on `Cc1cccc(C)c1Nc1nn(C)c2nc(Nc3ccc4c(c3)CN(C(=O)C3(F)CCN(C(=O)CNc5ccc6c(c5)C(=O)N(C5CCC(=O)NC5=O)C6=O)CC3)CC4)ncc12` (stereo not shown) [Compound 247, 5-((2-(4-(7-((3-((2,6-Dimethylphenyl)amino)-1-methyl-1H-pyrazolo[3,4-d]pyrimidin-6-yl)amino)-1,2,3,4-tetrahydroisoquinoline-2-carbonyl)-4-fluoropiperidin-1-yl)-2-oxoethyl)amino)-2-(2,6-dioxopiperidin-3-yl)isoindoline-1,3-dione] yielded a DC50 of 0.1 to 10 nM.

Molecule `Cc1cccc(C)c1Nc1nn(C)c2nc(Nc3ccc4c(c3)CN(C(=O)C3(F)CCN(C(=O)COc5ccc6c(c5)C(=O)N(C5CCC(=O)NC5=O)C6=O)CC3)CC4)ncc12` (stereo not shown) [Compound 248, 5-(2-(4-(7-((3-((2,6-Dimethylphenyl)amino)-1-methyl-1H-pyrazolo[3,4-d]pyrimidin-6-yl)amino)-1,2,3,4-tetrahydroisoquinoline-2-carbonyl)-4-fluoropiperidin-1-yl)-2-oxoethoxy)-2-(2,6-dioxopiperidin-3-yl)isoindoline-1,3-dione] has a DC50 of 0.1 to 10 nM.

Source: patent US12161722B2, “Bifunctional heterocyclic compound having BTK degradation function via ubiquitin proteasome pathway, and use thereof” (KOREA RESEARCH INSTITUTE OF CHEMICAL TECHNOLOGY, priority 2021, dated 2024)
